Source: patent US7671068B2, “N-(alkoxyalkyl) carbamoyl-substituted 6-phenyl-benzonaphthyridine derivatives and their use as PDE ¾ inhibitors” (NYCOMED GmbH, priority 2004, dated 2010)

Experiments:
[1] = test system: PDE4 (cAMP-specific) in the cytosol of human polymorphonuclear leukocytes (PMNL); experiment: PDE4 inhibition, Method A (radioactive PDE assay after Thompson et al.); assay type: biochemical; conditions: cAMP substrate, motapizone 1 μM
Method: (§1) The PDE activity was determined according to Thompson et al. (Adv Cycl Nucl Res 10: 69-92, 1979) with some modifications (Bauer and Schwabe, Naunyn-Schmiedeberg's Arch Pharmacol 311: 193-198, 1980). The test samples contained 20 mM Tris (pH 7.4), 5 mM MgCl2, 0.5 μM CAMP or cGMP, [^3H]cAMP or [^3H]cGMP (about 30 000 cpm/sample), the PDE isoenzyme-specific additives described in greater detail below, the indicated concentrations of inhibitor and an aliquot of the enzyme solution in a total sample volume of 200 μl. Dilution series of the compounds according to the invention were prepared in DMSO and further diluted in the samples [1:100 (v/v)], to give the desired end concentration of the inhibitors at a DMSO concentration of 1% (v/v), which for its part has only a minute effect on PDE activity.
(§2) After preincubation at 37° C. for 5 minutes, the reaction was started by addition of the substrate (CAMP or cGMP). The samples were incubated at 37° C. for a further 15 min. The reaction was terminated by addition of 50 μl 0.2 N HCl. After cooling on ice for 10 minutes and addition of 25 μg 5′-nucleotidase (snake venom from Crotalus atrox), the mixture was again incubated at 37° C. for 10 min and the samples were then applied to QAE Sephadex A-25 columns (sample volume 1 ml). The columns were eluted with 2 ml of 30 mM ammonium formate (pH 6.0). The radioactivity of the eluate was measured and corrected by the corresponding blank values (measured in the presence of denatured protein); the blank values were less than 5% of the total radioactivity. In no case did the proportion of hydrolyzed nucleotide exceed 30% of the original substrate concentration.
PDE4 (cAMP-specific) was investigated in the cytosol of human polymorphonuclear leukocytes (PMNL) [isolated from leukocyte concentrates, see Schudt et al., Arch Pharmacol 1991: 344, 682-690] using cAMP as substrate. The PDE3 inhibitor motapizone (1 μM) was used to suppress the PDE3 activity emanating from contaminated platelets.
(§3) The IC50 values were determined from the concentration-inhibition curves by nonlinear regression.
(§4) The inhibitory values of the compounds 1-16 and 22-24 have been determined according to Method A. The inhibitory values of the compounds 17-21 have been determined according to Method B.

[2] = target: T1, PDE3 (cGMP-inhibited) in homogenates of human platelets (Homo sapiens, UniProt Q14432); experiment: PDE3 inhibition, Method A (radioactive PDE assay after Thompson et al.); assay type: biochemical; conditions: read-out: PDE3 [−log IC50, mol/l] (converted)
T1 construct: investigated in homogenates of human platelets; from tissue; host or cells: homogenates of human platelets
Method: as §1, §2
PDE3 (cGMP-inhibited) was investigated in homogenates of human platelets (see Schudt et al., Biochem Pharmacol 1991: 42, 153-162) using CAMP or cGMP as substrate.
as §3, §4

T1 sequence (Q14432 whole entry): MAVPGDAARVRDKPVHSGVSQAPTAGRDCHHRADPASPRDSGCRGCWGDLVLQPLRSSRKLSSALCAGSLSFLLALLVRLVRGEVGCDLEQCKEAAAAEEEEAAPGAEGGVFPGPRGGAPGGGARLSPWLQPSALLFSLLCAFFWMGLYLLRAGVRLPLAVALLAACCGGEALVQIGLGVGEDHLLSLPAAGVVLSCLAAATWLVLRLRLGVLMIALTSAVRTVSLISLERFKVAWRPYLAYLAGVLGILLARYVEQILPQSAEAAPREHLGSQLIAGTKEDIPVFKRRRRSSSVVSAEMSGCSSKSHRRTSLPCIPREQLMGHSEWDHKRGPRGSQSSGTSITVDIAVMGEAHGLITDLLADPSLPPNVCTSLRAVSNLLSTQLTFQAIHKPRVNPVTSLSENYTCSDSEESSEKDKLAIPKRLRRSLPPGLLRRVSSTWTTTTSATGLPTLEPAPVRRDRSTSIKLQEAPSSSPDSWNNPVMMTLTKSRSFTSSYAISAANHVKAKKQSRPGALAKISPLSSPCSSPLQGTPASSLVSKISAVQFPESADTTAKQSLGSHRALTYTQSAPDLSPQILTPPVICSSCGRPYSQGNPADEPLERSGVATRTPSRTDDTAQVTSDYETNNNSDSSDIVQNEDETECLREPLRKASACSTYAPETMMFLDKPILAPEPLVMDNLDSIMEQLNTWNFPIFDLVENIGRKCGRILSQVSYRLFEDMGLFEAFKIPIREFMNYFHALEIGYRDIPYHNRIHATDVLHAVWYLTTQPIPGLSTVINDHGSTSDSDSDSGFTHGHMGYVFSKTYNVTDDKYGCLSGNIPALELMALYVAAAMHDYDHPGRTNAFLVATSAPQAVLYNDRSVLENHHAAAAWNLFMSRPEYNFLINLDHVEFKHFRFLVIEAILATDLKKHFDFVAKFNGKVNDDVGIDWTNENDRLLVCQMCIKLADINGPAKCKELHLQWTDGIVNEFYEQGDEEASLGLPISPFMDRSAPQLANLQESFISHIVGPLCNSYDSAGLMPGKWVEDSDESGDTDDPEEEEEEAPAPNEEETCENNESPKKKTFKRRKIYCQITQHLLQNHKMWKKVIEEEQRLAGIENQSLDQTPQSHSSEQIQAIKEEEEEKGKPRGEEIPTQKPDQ

Row | SMILES | PDE4 [−log IC50, mol/l] [1] [mol/l] | IC50 [2] [nM]
1 | CCOc1cc2c(cc1OC)C(c1ccc(C(=O)NCCCOC(C)C)cc1)=N[C@@H]1CCN(C)C[C@H]21.Cl [Compound 1] | 8.9 | –
2 | CCOc1cc2c(cc1OC)C(c1ccc(C(=O)NCCCOC(C)C)cc1)=N[C@@H]1CCN(C)C[C@H]21.Cl [Compound 1, 4-(4aR,10bS)-9-Ethoxy-8-methoxy-2-methyl-1,2,3,4,4a,10b-hexahydro-benzo [c][1,6]naphthyridin-6-yl)-N-(3-isopropoxy-propyl)-benzamide; hydrochloride] | – | 631
3 | CCOc1cc2c(cc1OC)C(c1ccc(C(=O)N(C(C)C)C(C)CCOCc3ccccc3)cc1)=N[C@@H]1CCN(C)C[C@H]21 (mixture of isomers) [Compound 10, N-(3-Benzyloxy-1-methyl-propyl)-4-((4aR,10bS)-9-ethoxy-8-methoxy-2-methyl-1,2,3,4,4a,10b-hexahydro-benzo[c][1,6]naphthyridin-6-yl)-N-isopropyl-benzamide] | 8.9 | 100
4 | CCOc1cc2c(cc1OC)C(c1ccc(C(=O)N(CCOC)C(C)C)cc1)=N[C@@H]1CCN(C)C[C@H]21.Cl [Compound 7, 4-((4aR,10bS)-9-Ethoxy-8-methoxy-2-methyl-1,2,3,4,4a,10b-hexahydro-benzo [c][1,6]naphthyridin-6-yl)-N-isopropyl-N-(2-methoxy-ethyl)-benzamide; hydrochloride] | 8.8 | 79.4
5 | CCCN(CCOC)C(=O)c1ccc(C2=N[C@@H]3CCN(C)C[C@@H]3c3cc(OCC)c(OC)cc32)cc1.Cl [Compound 6, 4-((4aR,10bS)-9-Ethoxy-8-methoxy-2-methyl-1,2,3,4,4a,10b-hexahydro-benzo [c][1,6]naphtpyridin-6-yl)-N-(2-methoxy-ethyl)-N-propyl-benzamide; hydrochloride] | 9.2 | 126
6 | CCOc1cc2c(cc1OC)C(c1ccc(C(=O)N[C@@H](C)COC)cc1)=N[C@@H]1CCN(C)C[C@H]21.Cl [Compound 2, 4-((4aR,10bS)-9-Ethoxy-8-methoxy-2-methyl-1,2,3,4,4a,10b-hexahydro-benzo [c][1,6]naphthyridin-6-yl)-N-((S)-2-methoxy-1-methyl-ethyl)-benzamide; hydrochloride] | 8.5 | 1580

Results, then the compound that gave them:

Row | PDE4 [−log IC50, mol/l] [1] [mol/l] | IC50 [2] [nM] | SMILES
7 | 9.5 | 158 | CCOc1cc2c(cc1OC)C(c1ccc(C(=O)N(Cc3ccccc3)[C@@H](C)COCc3ccccc3)cc1)=N[C@@H]1CCN(C)C[C@H]21 [Compound 23, N-Benzyl-N-((S)-2-benzyloxy-1-methyl-ethyl)-4-((4aR,10bS)-9-ethoxy-8-methoxy-2-methyl-1,2,3,4,4a,10b-hexahydro-benzo[c][1,6]naphthyridin-6-yl)-benzamide]
8 | 9.0 | 251 | CCOc1cc2c(cc1OC)C(c1ccc(C(=O)N[C@@H](C)COCc3ccccc3)cc1)=N[C@@H]1CCN(C)C[C@H]21 [Compound 24, N—((S)-2-Benzyloxy-1-methyl-ethyl)-4-((4aR,10bS)-9-ethoxy-8-methoxy-2-methyl-1,2,3,4,4a,10b-hexahydro-benzo[c][1,6]naphthyridin-6-yl)-benzamide]
9 | 9.4 | 158 | CCOc1cc2c(cc1OC)C(c1ccc(C(=O)N(CCOC)C3CCCCC3)cc1)=N[C@@H]1CCN(C)C[C@H]21.Cl [Compound 12, N-Cyclohexyl-4-((4aR,10bS)-9-ethoxy-8-methoxy-2-methyl-1,2,3,4,4a,10b-hexahydro-benzo [c][1,6]naphthyridin-6-yl)-N-(2-methoxy-ethyl)-benzamide; hydrochloride]
